Values quoted from earlier work in US20090099261A1, “Omega-3 mixtures” (ISI Brands Inc., priority 2007, published 2009).

Conditions: dietary intake; Michael J. James et al., Am. J. Clin. Nutr. 77:1140-45 (2003)

Row | share of dietary fatty acid converted to EPA [%] | SMILES
1 | ≤ 10 | CC/C=C\C/C=C\C/C=C\CCCCCCCC(=O)O [LNA, Linolenic acid]
2 | 40 | CC/C=C\C/C=C\C/C=C\C/C=C\CCCCC(=O)O [SA, stearidonic acid]
